The text below walks through data of publication PMC9260667, “Thioredoxin Reductase Inhibitors as Potential Antitumors: Mercury Compounds Efficacy in Glioma Cells” (Frontiers in Molecular Biosciences, 2022).

Data set [1] deals with GL261 cells. Nature of the data set: cells. The note with it: for IC50: Mus musculus, read-out: IC50 (MTT assay). Type of data set: cell-based, mouse. The protocol:
The effect of TmHg and EtHg on the viability of GL261 and N9 cells was evaluated by the MTT assay as previously described ([Branco et al., 2014]). Briefly, cells (5 × 10^3) were seeded in 96-well plates (Nunc®) and incubated at 37°C for 24 h to allow proper adherence to plates. Afterwards, TmHg and EtHg (0, 0.5, 1, 2.5, and 5 μM) were added to wells. The same procedure was carried out to evaluate the effect of TMZ on the cellular viability of GL261 and DMSO at a final concentration of 0.1% was added as a control group. For co-exposure, the addition of the mercury compounds (EtHg—1 and 2 μM; TmHg—1 and 2 µM) under study followed the addition of TMZ (200 µM).
Cell viability was determined at the time of addition of the compounds (0 h) and after 24, 48, and 72 h of exposure by adding MTT to a final concentration of 400 μg/ml per well and incubating at 37°C for 4 h. After incubation, the medium was removed, and the formazan crystals were dissolved in a 4:1 DMSO/glycine buffer (pH 10.5). After shaking for 15 min, the viability was evaluated through the measurement of formazan absorption at 550 nm on a microplate reader (Zenyth 3100, Anthos Labtec Instruments) ([Branco et al., 2014]).
The IC50 is the concentration of a compound that decreases MTT reduction by 50% relative to the non-treated control at each time point.
A general note: Formazan colour is commonly taken as a measure of viable cells.

Data set [2] relates to GL261 cells. Nature of the data set: cells. Type of data set: cell-based, mouse. Here is the method:
Cells were seeded in 96-well plates for 24 h prior to the addition of TmHg, EtHg (1 µM), TMZ (200, 400, and 800 µM), and for the 48 h end point the co-exposure of TMZ 200 µM with 1 µM EtHg and 1 µM TmHg. After exposure for 24 and 48 h, the supernatant was transferred to a fresh plate and a lysis buffer (10×) (Thermo Scientific™ Pierce™) was added to wells containing cells and incubated at 37°C for 45 min. LDH activity was evaluated using LDH Cytotoxicity Assay Kit from Thermo Scientific™ Pierce™ in the supernatant and lysate by the addition of lactate (substrate), a tetrazolium salt, and NAD^+ (cofactor) (Reaction Mixture), according to the manufacturer’s instructions. Following 30 min of incubation in the dark at room temperature, LDH release was assessed by measuring the absorbance at 490 and 680 nm in a microplate reader (Omega BMG LABTECH). The release of LDH was quantified as the ratio between the amount in the supernatant and total LDH (supernatant + lysate) ([Branco et al., 2017]).

On the set-up of data set [3]: method as in JECFA 2004, WHO Technical Report Series 922. The note with it: ref JECFA 2004, WHO Technical Report Series 922; cited from earlier work.

Like-named read-outs stand apart in the source and are kept apart here.

For orientation: IC50 means the concentration that gives 50% inhibition. By EC50 is commonly meant the concentration needed to bring the measured effect to its halfway point. Take `Cn1nnc2c(C(N)=O)ncn2c1=O` [TMZ, temozolomide]: the “reduction of viability (MTT)” value in the data set with GL261 cells [1] (GL261, 24 h exposure, maximal effect) is no more than 40%. In addition, the IC50 amounted to 444 ± 60 µM with GL261 cells [1] (GL261, 48 h exposure) and 276 ± 7 µM in the data set with GL261 cells [1] (GL261, 72 h exposure). Besides, in the data set with GL261 cells [2] (GL261, 200 µM TMZ alone), the “change of LDH levels” value is listed as “did not change the levels of LDH”. The EC50 in the data set with GL261 cells [2] (Mus musculus, GL261, 48 h exposure, read-out: EC50 (LDH assay)) was greater than 800 µM.

For `[CH3][Hg][Cl]` [methylmercury], the “safe concentration of intake without appearance of neurological disorders” value in data set [3] was 1.6 µg/Kg b.w./week.
